This assay has as its target T1, wtKIT (Homo sapiens, UniProt P10721).
T1 construct: 1888289AM in the reaction mixtures
Description: HTRF biochemical assay, wtKIT (phosphorylation of a peptide substrate). As to conditions: Table 4. A digest of the protocol: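 HTRF read-out of FAM-peptide (1 µM) phosphorylation after anti-phosphotyrosine antibody addition and EDTA quench. Reaction: 5.0 nM wtKIT, 400 µM ATP, 10 mM Mn2+, HEPES pH 7.5, 1% DMSO, 3 h, 25 °C; optional enzyme-compound preincubation; enzyme level set for 10-20% conversion.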

As a reminder, the IC50 is the point on the concentration scale where inhibition reaches its midpoint.

T1 sequence (P10721 26-976): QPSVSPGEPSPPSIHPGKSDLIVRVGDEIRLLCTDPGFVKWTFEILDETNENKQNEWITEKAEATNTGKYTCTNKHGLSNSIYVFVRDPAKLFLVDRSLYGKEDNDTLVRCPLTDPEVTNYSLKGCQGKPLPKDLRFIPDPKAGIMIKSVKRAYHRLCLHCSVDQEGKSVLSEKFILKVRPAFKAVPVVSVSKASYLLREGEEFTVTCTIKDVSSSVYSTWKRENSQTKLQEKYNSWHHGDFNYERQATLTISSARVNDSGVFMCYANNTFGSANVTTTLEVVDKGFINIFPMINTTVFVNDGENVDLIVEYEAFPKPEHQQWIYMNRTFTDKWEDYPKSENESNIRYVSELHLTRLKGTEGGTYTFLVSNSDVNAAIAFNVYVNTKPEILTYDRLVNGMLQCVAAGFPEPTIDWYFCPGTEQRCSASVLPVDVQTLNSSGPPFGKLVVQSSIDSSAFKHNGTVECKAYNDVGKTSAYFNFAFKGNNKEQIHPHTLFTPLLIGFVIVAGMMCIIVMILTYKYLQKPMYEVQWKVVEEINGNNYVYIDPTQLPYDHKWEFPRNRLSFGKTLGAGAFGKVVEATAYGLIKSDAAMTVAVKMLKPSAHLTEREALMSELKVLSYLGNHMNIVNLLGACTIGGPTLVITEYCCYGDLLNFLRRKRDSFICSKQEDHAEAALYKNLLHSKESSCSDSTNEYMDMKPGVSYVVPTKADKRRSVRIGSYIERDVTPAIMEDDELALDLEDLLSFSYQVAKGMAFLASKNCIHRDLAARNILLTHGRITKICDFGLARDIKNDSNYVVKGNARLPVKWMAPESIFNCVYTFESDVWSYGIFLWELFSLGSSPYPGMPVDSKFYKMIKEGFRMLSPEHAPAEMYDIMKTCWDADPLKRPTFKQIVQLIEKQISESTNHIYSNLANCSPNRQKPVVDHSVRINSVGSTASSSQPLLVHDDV

`Cc1ccc(-c2noc(CC(O)C(F)F)n2)cc1NC(=O)c1cnc2cc(COCC(C)N(C)C(=O)OC(C)(C)C)ccn12` (stereo not shown) [Compound I-600]: the IC50 was in the range of 50 to 500 nM.

With `Cc1ccc(-c2noc(CC(C)O)n2)cc1NC(=O)c1cnc2cc(F)ccn12` (stereo not shown) [Compound I-606], the concentration for half-maximal inhibition (IC50) fell in the range of 50 to 500 nM.

As for `Cc1ccc(-c2noc([C@H]3C[C@@H]3F)n2)cc1NC(=O)c1cnc2cc(CCCC(C)(C)O)ccn12` [Compound I-452, N-[5-[5-[(1R,2S)-2-fluorocyclopropyl]-1,2,4-oxadiazol-3-yl]-2-methyl-phenyl]-7-(4-hydroxy-4-methyl-pentyl)imidazo[1,2-a]pyridine-3-carboxamide], the half-maximal inhibitory concentration (IC50) is at most 50 nM.

`Cc1ccc(-c2noc(C3CC(F)(F)C3)n2)cc1NC(=O)c1cnc2cc(COCC(C)(C)O)ccn12` [Compound I-521, N-(5-(5-(3,3-difluorocyclobutyl)-1,2,4-oxadiazol-3-yl)-2-methylphenyl)-7-((2-hydroxy-2-methylpropoxy)methyl)imidazo[1,2-a]pyridine-3-carboxamide]: the 50% inhibitory concentration (IC50) is at most 50 nM.

For `Cc1ccc(-c2noc(CC3COC3)n2)cc1NC(=O)c1cnc2cc(COCC3(O)CC3)ccn12` [Compound I-637], the IC50 fell in the range of 50 to 500 nM.

For `Cc1ccc(-c2noc([C@H]3C[C@@H]3F)n2)cc1NC(=O)c1cnc2cc(CCOCC(C)(C)O)ccn12` [Compound I-467, N-(5-(5-((1R,2S)-2-fluorocyclopropyl)-1,2,4-oxadiazol-3-yl)-2-methylphenyl)-7-(2-(2-hydroxy-2-methylpropoxy)ethyl)imidazo[1,2-a]pyridine-3-carboxamide], the 50% inhibitory concentration (IC50) is at most 50 nM.

Take `Cc1ccc(-c2noc([C@H]3C[C@@H]3F)n2)cc1NC(=O)c1cnn2cc(CCOCCO)ccc12` [Compound I-503, N-(5-(5-((1R,2S)-2-fluorocyclopropyl)-1,2,4-oxadiazol-3-yl)-2-methylphenyl)-6-(2-(2-hydroxyethoxy)ethyl)pyrazolo[1,5-a]pyridine-3-carboxamide]: the IC50 is at most 50 nM.

`Cc1ccnc(-c2nc(-c3ccc(C)c(NC(=O)c4cnc5cc(C)ccn45)c3)no2)c1` [Compound I-549, 7-methyl-N-(2-methyl-5-(5-(4-methylpyridin-2-yl)-1,2,4-oxadiazol-3-yl)phenyl)imidazo[1,2-a]pyridine-3-carboxamide]: the 50% inhibitory concentration (IC50) was at most 50 nM.

Take `CNC(C)COCc1ccn2c(C(=O)Nc3cc(-c4noc(CC(O)C(F)F)n4)ccc3C)cnc2c1` (stereo not shown) [Compound I-599]: the IC50 was 50 to 500 nM.

Consider `Cc1nc(-c2ccc(C)c(NC(=O)c3cnc4cc(OC5CCOC5)ccn34)c2)no1` (single isomer, unassigned) [Compound I-748], for which the half-maximal inhibitory concentration (IC50) lay within 50 to 500 nM.

As for `Cc1ccc(-c2noc(C[C@H](O)C(F)F)n2)cc1NC(=O)c1cnc2cc(-c3cscn3)ccn12` [Compound I-554, (S)—N-(5-(5-(3,3-difluoro-2-hydroxypropyl)-1,2,4-oxadiazol-3-yl)-2-methylphenyl)-7-(thiazol-4-yl)imidazo[1,2-a]pyridine-3-carboxamide], the half-inhibitory concentration (IC50) was at most 50 nM.

`Cc1ccc(-c2noc(CC3COC3)n2)cc1NC(=O)c1cnc2cc(Cl)ccn12` [Compound I-753, 7-Chloro-N-[2-methyl-5-[5-(oxetan-3-ylmethyl)-1,2,4-oxadiazol-3-yl]phenyl]imidazo[1,2-a]pyridine-3-carboxamide]: the 50% inhibitory concentration (IC50) is at most 50 nM.

As to `Cc1ccc(-c2noc([C@H]3C[C@@H]3F)n2)cc1NC(=O)c1cnn2cc(COCC(C)(C)O)ccc12` [Compound I-466, N-[5-[5-[(1R,2S)-2-fluorocyclopropyl]-1,2,4-oxadiazol-3-yl]-2-methyl-phenyl]-6-[(2-hydroxy-2-methylpropoxy)methyl]pyrazolo[1,5-a]pyridine-3-carboxamide], the IC50 was at most 50 nM.

For the compound `CCNc1ccn2c(C(=O)Nc3cc(-c4ncon4)ccc3C)cnc2c1` [Compound I-706], the half-inhibitory concentration (IC50) was at most 50 nM.

`Cc1ccc(-c2noc(C3CC(O)(C(F)F)C3)n2)cc1NC(=O)c1cnc2ccccn12` (stereo not shown) [Compound I-538]: the IC50 was 50 to 500 nM.

For the compound `COCc1ccn2c(C(=O)Nc3cc(-c4noc(C(C)O)n4)ccc3C)cnc2c1` (stereo not shown) [Compound I-735], the half-inhibitory concentration (IC50) lay within 500 to 5000 nM.

With `Cc1ccc(-c2ncon2)cc1NC(=O)c1cnc2cc(COCCO)ccn12` [Compound I-700], the concentration for half-maximal inhibition (IC50) fell in the range of 50 to 500 nM.

Take `Cc1ccn2c(C(=O)Nc3cc(-c4noc(CC5CCCO5)n4)ccc3C)cnc2c1` (stereo not shown) [Compound I-553, 7-methyl-N-(2-methyl-5-(5-((tetrahydrofuran-2-yl)methyl)-1,2,4-oxadiazol-3-yl)phenyl)imidazo[1,2-a]pyridine-3-carboxamide]: the 50% inhibitory concentration (IC50) is at most 50 nM.

Consider `Cc1nc(-c2ccc(C)c(NC(=O)c3cnc4cc(-c5ccn(C)n5)ccn34)c2)no1` [Compound I-530, 7-(1-methyl-1H-pyrazol-3-yl)-N-(2-methyl-5-(5-methyl-1,2,4-oxadiazol-3-yl)phenyl)imidazo[1,2-a]pyridine-3-carboxamide], for which the IC50 was at most 50 nM.

Regarding `Cc1ccc(-c2noc(C[C@H](O)C(F)F)n2)cc1NC(=O)c1cnc2cc(COCc3c[nH]nn3)ccn12` [Compound I-575, (S)-7-(((1H-1,2,3-triazol-4-yl)methoxy)methyl)-N-(5-(5-(3,3-difluoro-2-hydroxypropyl)-1,2,4-oxadiazol-3-yl)-2-methylphenyl)imidazo[1,2-a]pyridine-3-carboxamide], the 50% inhibitory concentration (IC50) was at most 50 nM.

As to `Cc1ccc(-c2noc([C@H]3C[C@@H]3F)n2)cc1NC(=O)c1cnc2cc(Cl)c(F)cn12` [Compound I-613, 7-Chloro-6-fluoro-N-(5-(5-((1R,2S)-2-fluorocyclopropyl)-1,2,4-oxadiazol-3-yl)-2-methylphenyl)imidazo[1,2-a]pyridine-3-carboxamide], the IC50 is at most 50 nM.

As to `Cc1nc(-c2ccc(C)c(NC(=O)c3cnc4ccc(-c5ccn(C)n5)cn34)c2)no1` [Compound I-532, 6-(1-methyl-1H-pyrazol-3-yl)-N-(2-methyl-5-(5-methyl-1,2,4-oxadiazol-3-yl)phenyl)imidazo[1,2-a]pyridine-3-carboxamide], the half-maximal inhibitory concentration (IC50) was at most 50 nM.

In the case of `Cc1nc(-c2ccc(C)c(NC(=O)c3cnc4ccc(-c5cscn5)cn34)c2)no1` [Compound I-542, N-(2-methyl-5-(5-methyl-1,2,4-oxadiazol-3-yl)phenyl)-6-(thiazol-4-yl)imidazo[1,2-a]pyridine-3-carboxamide], the IC50 is at most 50 nM.

In the case of `Cc1ccn2c(C(=O)Nc3cc(-c4noc(CC(=O)CF)n4)ccc3C)cnc2c1` [Compound I-589], the half-inhibitory concentration (IC50) lay within 500 to 5000 nM.

For the compound `Cc1ccc(-c2noc(CC(O)C(C)(C)C)n2)cc1NC(=O)c1cnc2ccccn12` (stereo not shown) [Compound I-519], the 50% inhibitory concentration (IC50) was at most 50 nM.

Turning to `CNC(C)COCc1ccn2c(C(=O)Nc3cc(-c4noc(CC(O)C(F)F)n4)ccc3C)cnc2c1` (stereo not shown) [Compound I-598], the IC50 fell in the range of 50 to 500 nM.

As for `Cc1nc(-c2ccc(C)c(NC(=O)c3cnn4cc(C(F)F)ccc34)c2)no1` [Compound I-569], the IC50 lay within 50 to 500 nM.

For `Cc1nc(-c2ccc(C)c(NC(=O)c3cnc4cc(C5CCNC5=O)ccn34)c2)no1` (stereo not shown) [Compound I-448], the IC50 lay within 500 to 5000 nM.

`CC[C@@H](O)Cc1nc(-c2ccc(C)c(NC(=O)c3cnc4cc(Cl)ccn34)c2)no1` [Compound I-616, 7-chloro-N-[5-[5-[(2R)-2-hydroxybutyl]-1,2,4-oxadiazol-3-yl]-2-methyl-phenyl]imidazo[1,2-a]pyridine-3-carboxamide]: the IC50 is at most 50 nM.

Take `COc1ccn2c(C(=O)Nc3cc(-c4noc(C(C)O)n4)ccc3C)cnc2c1` (stereo not shown) [Compound I-742]: the IC50 lay in the range of 50 to 500 nM.

As for `Cc1ccn2c(C(=O)Nc3cc(-c4noc(CCC(C)(O)C(F)(F)F)n4)ccc3C)cnc2c1` (stereo not shown) [Compound I-752, 7-methyl-N-(2-methyl-5-(5-(4,4,4-trifluoro-3-hydroxy-3-methylbutyl)-1,2,4-oxadiazol-3-yl)phenyl)imidazo[1,2-a]pyridine-3-carboxamide], the IC50 was at most 50 nM.

As to `Cc1ccc(-c2noc(N3CC(F)(F)C3)n2)nc1NC(=O)c1cnc2ccccn12` [Compound I-711], the 50% inhibitory concentration (IC50) was in the range of 50 to 500 nM.

`Cc1ccc(-c2noc(CCC(C)(C)O)n2)cc1NC(=O)c1cnn2ccccc12` [Compound I-563]: the IC50 was 50 to 500 nM.

Consider `Cc1ccc(-c2noc(N3CC(F)(F)C3)n2)cc1NC(=O)c1cnn2cc(Cl)ccc12` [Compound I-625], for which the 50% inhibitory concentration (IC50) was at most 50 nM.

As for `Cc1ccc(-c2noc([C@H]3C[C@@H]3F)n2)cc1NC(=O)c1cnc2cc(F)c(Cl)cn12` [Compound I-605], the concentration for half-maximal inhibition (IC50) lay in the range of 50 to 500 nM.

For `Cc1ccc(-c2noc([C@H]3C[C@@H]3F)n2)cc1NC(=O)c1cnc2cc(CCC(C)(C)CO)ccn12` [Compound I-474, N-[5-[5-[(1R,2S)-2-fluorocyclopropyl]-1,2,4-oxadiazol-3-yl]-2-methyl-phenyl]-7-(4-hydroxy-3,3-dimethyl-butyl)imidazo[1,2-a]pyridine-3-carboxamide], the IC50 is at most 50 nM.

Regarding `Cc1nc(-c2ccc(C)c(NC(=O)c3cnn4cc(-c5ccn(C)n5)ccc34)c2)no1` [Compound I-535, 6-(1-methyl-1H-pyrazol-3-yl)-N-(2-methyl-5-(5-methyl-1,2,4-oxadiazol-3-yl)phenyl)pyrazolo[1,5-a]pyridine-3-carboxamide], the concentration for half-maximal inhibition (IC50) was at most 50 nM.

Consider `Cc1ccc(-c2noc([C@H]3C[C@@H](N)C3)n2)cc1NC(=O)c1cnc2cc(Cl)ccn12` [Compound I-623], for which the IC50 fell in the range of 500 to 5000 nM.

`Cc1nc(-c2ccc(C)c(NC(=O)c3cnc4cc(-c5ncsc5CO)ccn34)c2)no1` [Compound I-595, 7-(5-(hydroxymethyl)thiazol-4-yl)-N-(2-methyl-5-(5-methyl-1,2,4-oxadiazol-3-yl)phenyl)imidazo[1,2-a]pyridine-3-carboxamide]: the IC50 is at most 50 nM.

For `Cc1ccc(-c2noc([C@H]3C[C@@H]3F)n2)cc1NC(=O)c1cnc2ccc(C(C)(C)O)cn12` [Compound I-457, N-(5-(5-((1R,2S)-2-fluorocyclopropyl)-1,2,4-oxadiazol-3-yl)-2-methylphenyl)-6-(2-hydroxypropan-2-yl)imidazo[1,2-a]pyridine-3-carboxamide], the IC50 is at most 50 nM.

The values are drawn from patent US20240254119A1 (THIRD HARMONIC BIO, INC., priority 2022, published 2024).
